Patent US8318949B2, “Organic compounds” (Novartis AG, priority 2008, dated 2012)

Target: T1, stearoyl-CoA desaturase (SCD1) (Mus musculus, UniProt P13516)
T1 construct: Male ICR outbread mice, on a high-carbohydrate, low fat diet; from tissue; host or cells: liver microsomes of male ICR mice on a high-carbohydrate, low fat diet
T1 sequence (P13516 1-355): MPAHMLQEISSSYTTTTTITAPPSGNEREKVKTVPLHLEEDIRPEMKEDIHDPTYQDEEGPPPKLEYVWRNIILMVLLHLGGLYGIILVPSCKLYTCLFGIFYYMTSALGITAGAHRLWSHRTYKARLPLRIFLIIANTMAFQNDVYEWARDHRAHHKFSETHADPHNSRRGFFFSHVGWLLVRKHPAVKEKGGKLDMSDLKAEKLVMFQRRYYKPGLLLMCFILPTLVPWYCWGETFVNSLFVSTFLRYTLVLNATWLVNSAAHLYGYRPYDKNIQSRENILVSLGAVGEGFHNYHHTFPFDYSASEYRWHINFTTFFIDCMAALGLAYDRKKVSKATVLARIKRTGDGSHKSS
Experiment: Stearoyl-CoA desaturase inhibition, mouse liver microsomes (release of 3H2O from [9,10-3H]stearoyl-CoA)
Assay type: biochemical
Conditions: 15 min incubation, 25° C., read-out: Microsomal IC50
Excerpt: The identification of compounds of the invention as SCD inhibitors was readily accomplished using the SCD enzyme and microsomal assay procedure described in Shanklin J. and Summerville C., Proc. Natl. Acad. Sci. USA (1991), Vol. 88, pp. 2510-2514.
Measuring Stearoyl-CoA Desaturase Inhibition Activity of a Test Compound Using Mouse Liver Microsomes
The identification of compounds of the invention as SCD inhibitors was readily accomplished using the SCD microsomal assay procedure described in Shanklin J. and Summerville C., Proc. Natl. Acad. Sci. USA (1991), Vol. 88, pp. 2510-2514.
Male ICR outbread mice, on a high-carbohydrate, low fat diet, under light halothane (15% in mineral oil) anesthesia are sacrificed by exsanguination during periods of high enzyme activity. Livers are immediately rinsed with cold 0.9% NaCl solution, weighed and minced with scissors. All procedures are performed at 4° C. unless specified otherwise. Livers are homogenized in a solution (1/3 w/v) containing 0.25 M sucrose, 62 mM potassium phosphate buffer (pH 7.0), 0.15 M KCl, 15 mM N-acetyleysteine, 5 mM MgCl2, and 0.1 mM EDTA using 4 strokes of a Potter-Elvehjem tissue homogenizer. The homogenate is centrifuged at 10,400×g for 20 min to eliminate mitochondria and cellular debris. The supernatant is filtered through a 3-layer cheesecloth and centrifuged at 105,000×g for 60 min. The microsomal pellet is gently resuspended in the same homogenization solution with a small glass/teflon homogenizer and stored at −70° C. The absence of mitochondrial contamination is enzymatically assessed. The protein concentration is measured using bovine serum albumin as the standard.
Desaturase activity is measured as the release of ^3H2O from [9,10-^3H]stearoyl-CoA. Reactions per assay point conditions are as follows: 2 μL 1.5 mM stearoyl-CoA, 0.25 μL 1 mCi/mL ^3H stearoyl CoA, 10 μL 20 mM NADH, 36.75 μL 0.1 M PK buffer (K2HPO4/NaH2PO4, pH 7.2). The test compound or control solution is added in a 1 μL volume. Reactions are started by adding 50 μL of microsomes (1.25 mg/mL). The plates are mixed and after 15 min incubation on a heating block (25° C.), the reactions are stopped by the addition of 10 μL 60% PCA. An aliquot of 100 μL is then transferred to a filter plate pretreated with charcoal and the plate centrifuged at 4000 rpm for 1 minute. The flow through containing the ^3H2O released by the SCD1 desaturation reaction is added to scintillation fluid and the radioactivity measured in a Packard TopCount. The data is analysed to identify the IC50 for test compounds and reference compounds.
The activity was defined in terms of % SCD enzyme activity remaining at the desired concentration of the test compound or as the IC50 concentration. The IC50 (affinity) of the example compounds toward the stearoyl-CoA desaturase is comprised between around […] and 0.0001 μM or between around 5 μM and 0.0001 μM or between around 1 μM and 0.0001 μM.

| IC50 [nM] | Compound |
| --- | --- |
| 156 | Cc1nc(N2CCN(CC(C)C)C2=O)sc1C(=O)NCc1cccnc1 [Example 12.18, 2-(3-isobutyl-2-oxoimidazolidin-1-yl)-4-methyl-N-(pyridin-3-ylmethyl)thiazole-5-carboxamide] |
| 1210 | Cc1nc(N2C(=O)N(Cc3ccc(F)cc3)C3CC32)sc1C(=O)NCc1cccnc1 (centres unmarked) [Example 19, 2-(4-(4-fluorobenzyl)-3-oxo-2,4-diazabicyclo[3.1.0]hexan-2-yl)-4-methyl-N-(pyridin-3-ylmethyl)thiazole-5-carboxamide] |
| 98 | Cc1nc(-n2cnn(C(C)c3ccccc3)c2=O)sc1C(=O)NCc1cccnc1 (centres unmarked) [Example 20-5, 4-methyl-2-(5-oxo-1-(1-phenylethyl)-1H-1,2,4-triazol-4(5H)-yl)-N-(pyridin-3-ylmethyl)thiazole-5-carboxamide] |
| 80 | Cc1nc(-n2cnn(C(C)c3ccccc3)c2=O)sc1C(N)=O (centres unmarked) [Example 20-6, 4-methyl-2-(5-oxo-1-(1-phenylethyl)-1H-1,2,4-triazol-4(5H)-yl)thiazole-5-carboxamide] |
| 1720 | Cc1nc(-n2cnn(Cc3ccc(F)cc3)c2=O)sc1C(=O)NCc1ccc(C(F)(F)F)nc1 [Example 20-8, 2-(1-(4-fluorobenzyl)-5-oxo-1H-1,2,4-triazol-4(5H)-yl)-4-methyl-N-((6-(trifluoromethyl)pyridin-3-yl)methyl)thiazole-5-carboxamide] |
| 8 | Cc1nc(-n2cnn(C(C)c3ccccc3)c2=O)sc1C(=O)NCc1cncs1 (centres unmarked) [Example 20-10, 4-methyl-2-(5-oxo-1-(1-phenylethyl)-1H-1,2,4-triazol-4(5H)-yl)-N-(thiazol-5-ylmethyl)thiazole-5-carboxamide] |
| 18 | Cc1nc(-n2cnn(CC3CC3(F)F)c2=O)sc1C(=O)NCc1cncs1 (centres unmarked) [Example 20-12, 2-(1-((2,2-difluorocyclopropyl)methyl)-5-oxo-1H-1,2,4-triazol-4(5H)-yl)-4-methyl-N-(thiazol-5-ylmethyl)thiazole-5-carboxamide] |
| 208 | Cc1nc(-n2cnn(C(C)c3ccccc3)c2=O)sc1C(=O)NCc1csc(C(F)(F)F)n1 (centres unmarked) [Example 20-17, 4-methyl-2-(5-oxo-1-(1-phenylethyl)-1H-1,2,4-triazol-4(5H)-yl)-N-((2-(trifluoromethyl)-thiazol-4-yl)-methyl)thiazole-5-carboxamide] |
| 709 | Cc1nc(N2CCN(Cc3ccc(C(F)(F)F)cc3)C2=O)sc1C(=O)NCc1ccc2nccn2c1 [Example 20-22, N-(imidazo[1,2-a]pyridin-6-ylmethyl)-4-methyl-2-(2-oxo-3-(4-(trifluoromethyl)-benzyl)imidazolidin-1-yl)-thiazole-5-carboxamide] |
| 40 | Cc1nc(N2CCN(Cc3cccc(F)c3)C2=O)sc1C(N)=O [Example 20-24, 2-(3-(3-fluorobenzyl)-2-oxoimidazolidin-1-yl)-4-methylthiazole-5-carboxamide] |
| 11 | Cc1nc(N2CCN(C(C)c3ccccc3)C2=O)sc1C(=O)NCc1cncs1 (centres unmarked) [Example 20-26, 4-methyl-2-(2-oxo-3-(1-phenylethyl)-imidazolidin-1-yl)-N-(thiazol-5-yl-methyl)thiazole-5-carboxamide] |
| 13 | Cc1nc(-n2cnn(Cc3cc(F)cc(F)c3)c2=O)sc1C(=O)NCc1ccccn1 [Example 20-52, 2-(1-(3,5-difluorobenzyl)-5-oxo-1H-1,2,4-triazol-4(5H)-yl)-4-methyl-N-(pyridin-2-ylmethyl)-thiazole-5-carboxamide] |
| 20 | Cc1nc(-n2cnn(Cc3ccc(OC(F)(F)F)cc3)c2=O)sc1C(=O)NCc1ccccn1 [Example 20-54, 4-methyl-2-(5-oxo-1-(4-(trifluoromethoxy)-benzyl)-1H-1,2,4-triazol-4(5H)-yl)-N-(pyridin-2-ylmethyl)-thiazole-5-carboxamide] |
| 119 | Cc1nc(-c2sc(N3CCN(Cc4ccc(OC(F)(F)F)cc4)C3=O)nc2C)n[nH]1 [Example 20-57, 1-(4-methyl-5-(5-methyl-1H-1,2,4-triazol-3-yl)thiazol-2-yl)-3-(4-(trifluoromethoxy)-benzyl)imidazolidin-2-one] |
| 551 | Cc1nc(-n2cnn(CC3CC3(F)F)c2=O)sc1C(=O)NCc1cnn(C)c1 (centres unmarked) [Example 20-76, 2-(1-((2,2-difluorocyclopropyl)methyl)-5-oxo-1H-1,2,4-triazol-4(5H)-yl)-4-methyl-N-((1-methyl-1H-pyrazol-4-yl)methyl)thiazole-5-carboxamide] |
| 11 | Cc1cc(CNC(=O)c2sc(N3CCN(CC4CC4)C3=O)nc2C)no1 [Example 20-83, 2-(3-(cyclopropylmethyl)-2-oxoimidazolidin-1-yl)-4-methyl-N-((5-methylisoxazol-3-yl)methyl)thiazole-5-carboxamide] |
| 8 | Cc1nc(N2CCN(Cc3cc(Cl)cc(Cl)c3)C2=O)sc1C(=O)NCc1ccccn1 [Example 20-90, 2-(3-(3,5-dichlorobenzyl)-2-oxoimidazolidin-1-yl)-4-methyl-N-(pyridin-2-ylmethyl)thiazole-5-carboxamide] |
| 38 | Cc1nc(N2CCN(CCC3CC3)C2=O)sc1C(=O)NCc1ccccn1 [Example 20-103, 2-(3-(2-cyclopropylethyl)-2-oxoimidazolidin-1-yl)-4-methyl-N-(pyridin-2-ylmethyl)thiazole-5-carboxamide] |

Tested on: not given
Experiment: not given
Conditions: not given

| melting point [°C] | Compound |
| --- | --- |
| 170 to 172 | Cc1nc(N2CCN(Cc3ccc(F)cc3)C2=O)sc1C(=O)NCc1csc(C(C)C)n1 [Example 16.4, 2-(3-(4-fluorobenzyl)-2-oxoimidazolidin-1-yl)-N-((2-isopropylthiazol-4-yl)methyl)-4-methylthiazole-5-carboxamide] |
| 149 to 151 | Cc1nc(-n2cnn(Cc3ccc(F)cc3)c2=O)sc1C(=O)NCc1cccc(N(C)C)c1 [Example 16.5, N-(3-(dimethylamino)benzyl)-2-(1-(4-fluorobenzyl)-5-oxo-1H-1,2,4-triazol-4(5H)-yl)-4-methylthiazole-5-carboxamide] |
| 273 to 275 | Cc1nc(-n2cnn(CC3CC3(F)F)c2=O)sc1C(N)=O (centres unmarked) [Example 16.6, 2-(1-((2,2-difluorocyclopropyl)methyl)-5-oxo-1H-1,2,4-triazol-4(5H)-yl)-4-methylthiazole-5-carboxamide] |
| 151 to 153 | Cc1nc(-n2cnn(Cc3ccc(F)cc3)c2=O)sc1C(=O)NCc1csc(C(C)C)n1 [Example 16.7] |
| 227 to 230 | Cc1nc(N2CCN(CC3CC3(F)F)C2=O)sc1-c1cc[nH]n1 (centres unmarked) [Example 17, 1-((2,2-difluorocyclopropyl)methyl)-3-(4-methyl-5-(1H-pyrazol-3-yl)thiazol-2-yl)imidazolidin-2-one] |
| 185 to 186 | Cc1nc(N2CCN(CCCC(F)(F)F)C2=O)sc1-c1cc[nH]n1 [Example 17.1, 1-(4-methyl-5-(1H-pyrazol-3-yl)thiazol-2-yl)-3-(4,4,4-trifluorobutyl)imidazolidin-2-one] |
| 136 to 139 | Cc1nc(-n2cnn(Cc3ccc(F)cc3)c2=O)sc1-c1nn[nH]n1 [Example 18, 1-(4-fluorobenzyl)-4-(4-methyl-5-(2H-tetrazol-5-yl)thiazol-2-yl)-1H-1,2,4-triazol-5(4H)-one] |
| 145 to 149 | Cc1nc(N2CCN(Cc3ccc(F)cc3)C2=O)sc1-c1nn[nH]n1 [Example 18.1, 1-(4-fluorobenzyl)-3-(4-methyl-5-(2H-tetrazol-5-yl)thiazol-2-yl)imidazolidin-2-one] |
